Several values for one entry are separate records, joined by “and”; a condition that tells them apart may be missing. Identical values can stand only once.
What was measured:
CHO = assay: Labelling (staining) of cells with labelled molecules; assay type: cell-based
Excerpt: (§1) As shown in the examples, a compound for use according to the invention, wherein the compound comprises a label moiety, is contacted with a cell. As labelling is preferably done with viable or potentially viable cells, the cells are typically present in an aqueous solution, which is preferably buffered and/or contains nutrients, e.g. the cells are suspended in PBS. The labeled compound for use according to the invention may be added to the cells, e.g. in form of a solution, e.g. as aqueous solution by methods known in the art, as pipetting.

Epithelial cells = assay: as above; assay type: cell-based
Excerpt: as §1

Hela = assay: as above; assay type: cell-based
Excerpt: as §1

U937 = assay: as above; assay type: cell-based
Excerpt: as §1

WBCs [1] = assay: as above; assay type: cell-based
Excerpt: as §1

MDA-MB468 = assay: as above; assay type: cell-based
Excerpt: as §1

NIH 3T3 = assay: as above; assay type: cell-based
Excerpt: as §1

Jurkats = assay: as above; assay type: cell-based
Excerpt: as §1

COS 7 = assay: as above; assay type: cell-based
Excerpt: as §1

WBC [2] = conditions: Example 5 B; centrifugation 10 min, 300×g
WBC [3] = assay: WBC recovery rate after centrifugation (stabilization of cells); assay type: cell-based, human; conditions: Centrifugation 10 min, 300×g
Method: (§2) Centrifugation characteristics: 10 min, 300×g.
as §2
The respective left, middle and right columns per assay represent different Experimenters 1, 2 and 3. […] Centrifugation characteristics: 10 min, 300×g. Molecule: Cholesteryl-TEG-Cholesteryl-TEG-(SpacerC18)7-Fluos-Biotin-TEG.
(§3) Following molecules were tested: 1234: 5′-(Cholesteryl-TEG)2-Spacer C18-dT-Biotin-TEG-3′; 1248: 3′-(Cholesteryl-TEG)2-PEG2000-Fluos-Biotin-TEG-5′ INVERS; 1254: 3′-(Cholesteryl-TEG)2-SpacerC18-Fluos-Biotin-TEG-5′ INVERS; 1255: 3′-(Myristic acid)2-PEG2000-dT-Biotin-TEG-5′ INVERS. […] Centrifugation characteristics: 20 min, 300×g. Respective left column: 10 min incubation with molecule. Respective middle column: 1 h min incubation with molecule. Respective right column: 2 h incubation with molecule.
Following molecules were tested: 1255: 3′-(Myristic acid)2-PEG2000-dT-Biotin-TEG-5′ INVERS; 1234: 5′-(Cholesteryl-TEG)2-Spacer C18-dT-Biotin-TEG-3′; 1248: 3′-(Cholesteryl-TEG)2-PEG2000-Fluos-Biotin-TEG-5′ INVERS; 1254: 3′-(Cholesteryl-TEG)2-SpacerC18-Fluos-Biotin-TEG-5′ INVERS. […] Centrifugation characteristics: 20 min, 500×g. Respective left column: 10 min incubation with molecule. Respective middle column: 1 h min incubation with molecule. Respective right column: 3 h incubation with molecule.
as §3, with “tested: 1255: 3′-(Myristic acid)2-PEG2000-dT-Biotin-TEG-5′ INVERS;” for “tested:”, “3′-(Cholesteryl-TEG)2-SpacerC18-Fluos-Biotin-TEG-5′” for “3′-(Cholesteryl-TEG)2-SpacerC18-Fluos-Biotin-TEG-5′ INVERS; 1255: 3′-(Myristic acid)2-PEG2000-dT-Biotin-TEG-5′”, “1000×g.” for “300×g.”
Stabilization is typically determined on a population of cells, e.g. 2, 10, 100 or more cells, and the respective mean viability of the cell populations are compared. […] Viability may be determined by determining cell morphology, cell viability and/or cell recovery. Methods for determining cell morphology, cell viability and cell recovery are known in the art. […] For determining cell morphology, visual inspection by microscopy may be performed. For determining cell viability, a cell viability test using WST-1 proliferation kit (RAS) may be performed.

WBCs [4] = assay: Recovery rate of cells after immobilization on streptavidin (SA) plate; assay type: cell-based; conditions: WBCs, 100 nmol/10e6 cells
Method: X=hydrophobic moiety, […]=fluorescein In the following experiment, the recovery rate of cells was determined.

Molecule	staining of cells by labelled molecule (CHO)	staining of cells by labelled molecule (Epithelial cells)	staining of cells by labelled molecule (Hela)	staining of cells by labelled molecule (U937)	staining of cells by labelled molecule (WBCs [1])	staining of cells by labelled molecule (MDA-MB468)	staining of cells by labelled molecule (NIH 3T3)	staining of cells by labelled molecule (Jurkats)	staining of cells by labelled molecule (COS 7)	time within which cell immobilization is enabled (WBC [2]) [h]	WBC recovery rate after centrifugation: dependence on molecule concentration (WBC [3])	Recovery Rate (WBCs [4]; listed as Biotin-PEG-Lysin-(C18)2)	Recovery Rate (WBCs [4]; may be to due 1.5-2 h exposure of plate) [%]
5′-CholesterylTEG-CholesterylTEG-PEG2000-Fluos-3′ [BMO 29.891133]	✓	✓	✓	✓	50-200 ms) ✓	✓	✓	✓	✓	–	–	–	–
CCCCCCCCCCCCCCCCCCN1C(=CC=CC2=[N+](CCCCCCCCCCCCCCCCCC)c3ccccc3C2(C)C)C(C)(C)c2ccccc21.[O-][Cl+3]([O-])([O-])[O-] [1,1′-Dioctadecyl-3,3,3′,3′-tetramethylindocarbocyanin perchlorate]	✓	✓	✓	✓	✓ not all	✓	✓*	✓	✓	–	–	–	–
CCCCC/C=C\C/C=C\CCCCCCCCN1C(=CC=CC2=[N+](CCCCCCCC/C=C\C/C=C\CCCCC)c3ccccc3C2(C)C)C(C)(C)c2ccccc21.[O-][Cl+3]([O-])([O-])[O-] [Linol, 1,1′-dilinoleyl-3,3,3′,3′-tetramethylindocarbocyanine perchlorate]	✓	✓	✓	✓	20-50 ms) ✓	✓	✓	✓	✓	–	–	–	–
CCCCCCCCCCCCCCCCCCCCCC[N+]1=C(/C=C/C=C2/N(CCCCCCCCCCCCCC)c3ccccc3C2(C)C)C(C)(C)c2ccccc21.[I-] [PKH26]	✓	✓ not all	✓*	✓	not stained) ✓	✓	✓	✓	✓	–	–	–	–
CCCCCCCCCCCCCCCC(=O)OC[C@H](COP(=O)(O)OCCNC(=O)CCc1ccc2n1[B-](F)(F)[N+]1=C(C)C=C(C)C1=C2)OC(=O)CCCCCCCCCCCCCCC.CCN(CC)CC [Phosphatidylethanolamine, N-(4,4-difluoro-5,7-dimethyl-4-bora-3a,4a-diaza-s-indacene-3-propionyl)-1,2-dihexadecanoyl-sn-glycero-3-phosphoethanolamine, triethylammonium salt]	–	–	x/✓ very weak	–	–	–	–	–	–	–	–	–	–
CCCCCCCCCCCCC/C=C/[C@@H](O)[C@H](COP(=O)([O-])OCC[N+](C)(C)C)NC(=O)CCCCc1ccc2n1[B-](F)(F)[N+]1=C(C)C=C(C)C1=C2 [Sphingomyelin, N-(4,4-difluoro-5,7-dimethyl-4-bora-3a,4a-diaza-s-indacene-3-pentanoyl)sphingosyl phosphocholine]	x very weak	✓	✓	–	(x)- very bad	–	–	–	–	–	–	–	–
Biotin-PEG-Lys-(C18)2	–	–	–	–	–	–	–	–	–	≤ 3.5	The higher the molecule concentration, the higher the cell recovery rate after centrifugation	83.9% and 75.0% and 66.0%	33.0

— patent US11021472B2, “Use of compounds comprising two or more hydrophobic domains and a hydrophilic domain comprising PEG moieties for stabilization of a cell” (Roche Diagnostics Operations, Inc., priority 2013, dated 2021)
